Each structure is given as a SMILES string.

This assay deals with T1, glucocorticoid receptor (GR) (Homo sapiens, UniProt P04150).
T1 construct: expression plasmids for full-length human GR; expressed in transfected cells; host or cells: LNCaP
T1 sequence (P04150 1-777): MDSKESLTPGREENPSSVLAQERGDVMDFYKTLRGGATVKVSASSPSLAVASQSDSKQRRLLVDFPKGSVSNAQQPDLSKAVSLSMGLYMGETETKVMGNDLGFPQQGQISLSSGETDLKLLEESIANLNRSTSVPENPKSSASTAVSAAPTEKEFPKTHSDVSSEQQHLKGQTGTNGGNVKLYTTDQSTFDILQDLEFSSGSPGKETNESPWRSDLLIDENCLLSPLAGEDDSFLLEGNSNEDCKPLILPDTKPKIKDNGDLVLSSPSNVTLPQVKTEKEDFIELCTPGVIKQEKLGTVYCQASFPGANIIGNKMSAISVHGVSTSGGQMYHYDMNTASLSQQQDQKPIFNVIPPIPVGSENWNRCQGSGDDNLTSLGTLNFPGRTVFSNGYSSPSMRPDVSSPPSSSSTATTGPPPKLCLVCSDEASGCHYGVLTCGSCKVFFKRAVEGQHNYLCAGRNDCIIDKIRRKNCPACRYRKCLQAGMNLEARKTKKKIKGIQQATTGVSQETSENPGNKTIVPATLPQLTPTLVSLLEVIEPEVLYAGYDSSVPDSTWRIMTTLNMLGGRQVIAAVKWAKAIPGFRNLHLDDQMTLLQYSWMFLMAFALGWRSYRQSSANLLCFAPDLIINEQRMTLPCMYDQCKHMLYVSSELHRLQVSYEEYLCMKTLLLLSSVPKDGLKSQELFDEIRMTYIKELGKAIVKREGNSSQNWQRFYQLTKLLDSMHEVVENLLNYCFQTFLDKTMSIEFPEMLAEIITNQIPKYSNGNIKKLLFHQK
The assay can be described thus: GRE-luciferase reporter assay in LNCaP cells cotransfected with full-length human GR. The class given is cell-based. Particulars: 1.9 μM 8d, 10 nM dexamethasone, 48 h, LNCaP cells (FIG. 2C). How it is done:
To assess specificity for the AR, parallel experiments were performed in LNCaP cells with endogenous AR and ectopic expression of other closely related human hormone receptors such as the progesterone receptor-beta (PRβ), glucocorticoid receptor (GR) and estrogen receptor-α (ER).
A general note: Reporter assays use an easily measured gene product as a stand-in for the process of interest.

Turning to `CC(C)(c1ccc(OC[C@H](O)CO)cc1)c1ccc(OC[C@H](O)CCl)c(I)c1` [Compound 8d, (R)-3-(4-(2-(4-((S)-3-chloro-2-hydroxypropoxy)-3-iodophenyl)propan-2-yl)phenoxy)propane-1,2-diol], the “GR activity (GRE-luciferase)” value is listed as “not inhibited”.

Source of the values: patent publication US9375496B2, “Halogenated compounds for cancer imaging and treatment and methods for their use” (The University of British Columbia, priority 2013, dated 2016).
